Laboratory results from patent US7910586B2, “Compositions and methods for prevention and treatment of amyloid-β peptide-related disorders” (The Rockefeller University, priority 2002, dated 2011).
Structures can show the parent of a compound that is named as a salt.

Key:
[1] = system: rat embryonic cortical neurons; experiment: Aβ production in rat primary embryonic cortical neuronal cultures; assay type: cell-based; settings: for production of Aβ peptides: normal rat primary neuronal cell cultures; for concentration at which significant reductions in Aβ were observed: primary cortical neuronal cultures, dose response, FIGS. 13 and 14
From the text: Cultures of rat embryonic cortical neurons were established from day 18 pregnant SD rats using standard techniques (Gasparini et al., 2001, J. Neurosci. 21(8):2561-2570).
The next day, cells were labeled with ^35S-methionine and cysteine for four hours in the presence of compounds as above. Media and cells were then harvested and subjected to immunoprecipitation with antibody 4G8, to detect Aβ and APP. The media was serially immunoprecipitated first with antibody 4G8 and then antibody 22C11, for detection of secreted Aβ, sAPPP and sAPPα. Immunoprecipitates were subjected to PAGE and resolved by autoradiography; APP metabolites were compared by densitometry.

[2] = system: N2a cells transfected with the human Swedish APP mutation; experiment: Aβ generation in N2a cells transfected with human Swedish APP and normal or ΔE9 presenilin 1 (immunoprecipitation, autoradiography, Western blot); assay type: cell-based, mouse; settings: for Aβ after one hour of treatment: 35S labeled N2a cells expressing human APP-Swedish
Protocol: N2a cells transfected with the human Swedish APP mutation, and with either normal human presenilin 1 or ΔE9 mutant presenilin 1 (PS1), were used for assays of compound effect on Aβ generation.
Media was added with compound concentration of 0, 10^−9, 10^−8, 10^−7 and 10^−6 M; cells were incubated overnight at 37° C. The next day, cells were incubated with ^35S-methionine and ^35S-cysteine for four hours in the presence of the compound as above.
Media and cells were separately harvested and subjected to immunoprecipitation with antibody 4G8 (Senetek, Napa, Calif.), which recognizes an epitope corresponding to residues 17-28 of Aβ. Antibody 4G8 immunoprecipitates Aβ from media, and Aβ plus full-length APP from cells. After removal of antibody 4G8 and bound Aβ from media, the supernatant was reacted with 22C11 (Chemicon International), an antibody that immunoprecipitates sAPPβ and sAPPα. Immunoprecipitates were subjected to PAGE and resolved by autoradiography according to standard methods. APP metabolites were compared by densitometry according to standard methods.
In other experiments, immunoprecipitation followed by Western blot analysis was carried out on unlabeled (no radioactive label) N2a cells, using standard methods and using 6E10 (Senetek, Napa, Calif.) or 22C11 antibodies for detection.
These immunoprecipitation experiments were repeated using a minimal treatment time, 1 hour instead of overnight.

[3] = system: brain Aβ40, Aβ42 and C99; experiment: Brain Aβ and C99 in wild-type guinea pigs after intrathecal osmotic minipump treatment; assay type: in vivo, guinea pig; settings: 2.8 mg/kg, 7 days
Protocol: After 7 days of treatment, animals were sacrificed, and their brains homogenized in 25 mM Tris 7.5, 50 mM NaCl, 1 mM DTT, 5 mM EDTA, 1 mM EGTA, and 1× protease inhibitor cocktail (Complete™, Boehringer Biochemicals). Aliquots of brain homogenate were assayed for Aβ peptide by using a sandwich ELISA according the manufacturer's recommendations (Biosource International, Camarillo, Calif.) and for C99 by immunoprecipitation and Western blot analysis using standard methods.

[4] = system: γ-secretase; experiment: Isolated γ-secretase activity: Aβ release (ELISA) from membranes of N2a cells expressing recombinant C99; assay type: biochemical, mouse; settings: membranes from N2a cells expressing C99, with ATP; FIG. 4
Protocol: For the assay of isolated γ-secretase activity, membranes were isolated from N2a cells expressing a recombinant γ-secretase substrate, C99, according to the methods of Zhang et al. (2001, Biochemistry 40: 5049-5055). […] Also, to determine whether ATP was primarily responsible for stimulating γ-secretase activity, the previous energy regenerating system was substituted with one designed to sustain concentrations of ATP alone but not GTP. Aβ release from isolated membranes was determined by ELISA (Biosource International, Camarillo, Calif.).

[5] = system: mΔe-Notch; experiment: Notch cleavage in N2a cells transfected with mΔe-Notch; assay type: cell-based, mouse; settings: at levels that strongly inhibit Aβ-formation; FIGS. 17 and 18
From the text: N2a cells were transfected with a constitutively active truncated form of Notch, mouse “deleted-extracellular” Notch (mΔe-Notch), which supplies a direct substrate for γ-secretase (De Strooper et al., 1999, Nature 398: 518-522).

[6] = system: Abl knockout (Abl−/−) 3T3 mouse fibroblasts; experiment: Aβ production in Abl knockout (Abl−/−) 3T3 mouse fibroblasts; assay type: cell-based; settings: 5 μM or 10 μM STI-571; 0.5 μM or 1.0 μM Compound 1; similar degree as in wild-type and N2a cells
Protocol: (§1) Abl knockout (Abl−/−) 3T3 mouse fibroblasts and wild-type 3T3 mouse fibroblasts (see Liu et al., 1996, Nature 384(6606):273-6) were grown separately and to confluence in 100 mm Corning tissue culture plates. These fibroblast cell lines are permanent cell lines. […] Several other plates were exposed to either 0.5 μM or 1.0 μM Compound 1 (dissolved in DMSO) or to DMSO without Compound 1.
(§2) For the above-described cell cultures, each of the drugs or control solvents was added to a standard culture medium (DMEM+10% FBS+pen/strep) at a dilution of 1:1000 and cultures were then incubated at 37° C. for 2 hours. The contacting of cell cultures and incubation with inhibitors and solvent, as described above, constituted “pretreatment” of cells.
(§3) The first culture medium was then removed and the cell cultures were rinsed with a second culture medium lacking methionine, cysteine and glutamate. The cell cultures were incubated with this culture medium for 30 minutes (to stimulate subsequent uptake of amino acids). Then the second culture medium was exchanged for fresh first culture medium containing ^35S-labeled methionine and cysteine (NEN Express label 50 μl/ml) and unlabeled glutamine (final concentration 2 mM) and with inhibitors as described above, and incubated for 4 hours at 37° C. […]

[7] = system: wild-type 3T3 mouse fibroblasts; experiment: Aβ production in wild-type 3T3 mouse fibroblasts; assay type: cell-based; settings: 5 μM or 10 μM STI-571; 0.5 μM or 1.0 μM Compound 1; similar degree as in Abl−/− and N2a cells
Protocol: as §1, §2, §3

[8] = system: rat embryonic cortical neurons; experiment: Aβ production in rat primary embryonic cortical neuronal cultures; assay type: cell-based
[9] = system: N2a cells expressing Swedish variant of human APP and the PS1 mutation; experiment: Mass spectrometry (Ciphergen ProteinChip, SELDI-TOF) of Aβ40 and Aβ42 in media from N2a cells; assay type: cell-based, mouse; settings: FIG. 5
Protocol: Mass spectrometry was carried out on media from N2a cells to detect Aβ40 and Aβ42 peptides using the CiphergenProteinChip System (Ciphergen Biosystems Inc., Fremont, Calif.), which is based on Seldi and time-of-flight mass spectrometry, using standard protocols as set out by the manufacturer. The experimental procedures were the same as those disclosed above for immunoprecipitation/Western blotting, without metabolic labeling. […] Aliquots of detergent treated media were contacted to a metal chip that was previously contacted with an antibody, such as 6E10. The antibody binds human APP metabolites, including Aβ, in the applied sample. Detection of bound antigen followed a laser pulse that dissociated antigen from antibody.
Aβ peptides were resolved graphically as peaks of various heights, situated on an x-axis denoting molecular mass. Thus, Aβ40 and Aβ42 were resolved separately at approximately 4333 and 4519 daltons, respectively. The relative heights or areas under the peaks in a given spectrum denoted the relative concentrations of the detected species. Peaks corresponding to the same species, as conveyed by molecular mass, were compared among different spectra, reflecting different samples, to measure relative quantities of Aβ among a set of samples.

appearance of animals [3] | SMILES | production of Aβ peptides [1] | concentration at which significant reductions in Aβ were observed [1] | secretion of soluble APP-α ([1]; primary neuronal cells cultured from rat brain, FIG. 9) | levels of Aβ in cells ([1]; rat cortical neurons) | levels of Aβ in media ([1]; rat cortical neurons, FIG. 8A, FIG. 10) | total cellular APP ([1]; rat cortical neurons, FIG. 9) | total sAPP ([1]; rat cortical neurons, FIG. 9) | Aβ after one hour of treatment ([2]; FIGS. 6 and 7) | IC50 ([2]; N2a cells expressing APP and either normal human presenilin 1 or ΔE9 mutant presenilin 1, read-out: IC50 (inhibited total levels of Aβ by 50%)) | full-length βAPP levels ([3]; FIG. 16C) | Aβ generation in isolated membranes [4] | cleavage of mΔe-Notch to form Notch intracellular domain (NICD) [5] | Aβ production [6] | Aβ production [7] | cytotoxicity [8] | Aβ40 level [9] | Aβ42 level [9] | APP levels ([2]; intact N2a cells expressing Swedish variant of human APP, FIGS. 6 and 7)
healthy and active | CSc1cccc(Nc2ncc3cc(-c4c(Cl)cccc4Cl)c(=O)n(C)c3n2)c1 [Compound 1] | inhibit | 0.5 µM | consistent secretion | reduced | reduced | not reduced significantly | not reduced significantly | dose-dependent decrease | < 1000 nM | do not change | dose-dependent decrease | unaffected | inhibited | inhibited | not cytotoxic | dramatically reduced | dramatically reduced | –
– | Cc1ccc(NC(=O)c2ccc(CN3CCN(C)CC3)cc2)cc1Nc1nccc(-c2cccnc2)n1 [STI-571, imatinib mesylate, reference compound] | inhibit | 5 µM | – | – | – | – | – | dose-dependent decrease | – | – | – | – | inhibited | inhibited | – | – | – | do not change
